{"source": "paper PMC10698177", "about": "“Discovery of type II polyketide synthase-like enzymes for the biosynthesis of cispentacin” (Nature Communications, 2023)", "assay_type_in_all_cases": "biochemical", "key": {"AmcH [1]": {"molecular_target": "T1, AmcH (Streptomyces novoguineensis, UniProt A0A4Y5QVH7)", "T1 construct": "AmcH purified from Streptomyces albus G153; AmcB (holo form, with phosphopantetheine arm) from E. coli BL21(DE3), pET26b(+), is the acyl acceptor; with Acyl carrier protein AmcB", "T1 sequence (A0A4Y5QVH7 1-460)": "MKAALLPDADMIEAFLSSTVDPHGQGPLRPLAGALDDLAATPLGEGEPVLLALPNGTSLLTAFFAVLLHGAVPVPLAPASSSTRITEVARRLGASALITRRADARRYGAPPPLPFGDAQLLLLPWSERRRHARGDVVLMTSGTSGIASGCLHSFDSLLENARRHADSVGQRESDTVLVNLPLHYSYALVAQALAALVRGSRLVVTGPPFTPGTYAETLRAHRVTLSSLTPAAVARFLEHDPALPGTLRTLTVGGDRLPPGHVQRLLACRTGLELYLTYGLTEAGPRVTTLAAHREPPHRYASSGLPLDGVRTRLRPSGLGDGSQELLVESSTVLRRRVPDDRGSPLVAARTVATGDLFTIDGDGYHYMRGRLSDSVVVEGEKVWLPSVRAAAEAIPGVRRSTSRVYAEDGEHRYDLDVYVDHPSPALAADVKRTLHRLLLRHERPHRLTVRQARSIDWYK", "test": "HPLC of ATP consumption and AMP formation", "settings": "500 uM AmcB, 1 uM AmcH, 1 mM 2-OG, 2 mM ATP, 25 mM MgCl2, pH 8.0, 30 °C"}, "sFabI": {"molecular_target": "T2, sFabI (Streptomyces albidoflavus, UniProt D6BBL6)", "T2 construct": "gene fabI; C-terminal His tag, pET26b(+), E. coli BL21(DE3)", "T2 sequence (D6BBL6 1-259)": "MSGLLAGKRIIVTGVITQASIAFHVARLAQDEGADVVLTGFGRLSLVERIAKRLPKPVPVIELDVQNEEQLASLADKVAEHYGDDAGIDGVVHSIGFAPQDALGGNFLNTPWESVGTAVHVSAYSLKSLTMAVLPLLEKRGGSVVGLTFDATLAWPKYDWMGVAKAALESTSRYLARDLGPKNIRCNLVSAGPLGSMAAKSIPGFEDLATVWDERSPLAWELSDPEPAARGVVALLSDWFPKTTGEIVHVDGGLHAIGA", "test": "PPant ejection assay / LC-HRMS of 4-AmcB formation", "settings": "1 mM NADH, 200 uM gel-filtered 3-AmcB, 8 uM enzyme, 20 mM Tris-HCl pH 8.0, 150 mM NaCl, 30 °C, 1 h"}, "eFabI": {"molecular_target": "T3, eFabI (Escherichia coli, UniProt P0AEK4)", "T3 construct": "gene fabI; C-terminal His tag, pET26b(+), E. coli BL21(DE3)", "T3 sequence (P0AEK4 2-262)": "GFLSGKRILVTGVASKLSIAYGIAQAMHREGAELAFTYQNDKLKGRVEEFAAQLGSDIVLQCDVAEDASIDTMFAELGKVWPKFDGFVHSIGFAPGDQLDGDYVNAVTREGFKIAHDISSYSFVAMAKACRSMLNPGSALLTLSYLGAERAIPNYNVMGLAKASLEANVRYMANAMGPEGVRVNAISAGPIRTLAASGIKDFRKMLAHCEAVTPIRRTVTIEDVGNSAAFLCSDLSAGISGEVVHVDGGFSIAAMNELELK", "test": "PPant ejection assay / LC-HRMS of 4-AmcB formation", "settings": "1 mM NADH, 200 uM gel-filtered 3-AmcB, 8 uM enzyme, 20 mM Tris-HCl pH 8.0, 150 mM NaCl, 30 °C, 1 h"}, "AmcH [2]": {"molecular_target": "T1, AmcH", "test": "LC-ESI-HRMS of acyl-AmcB", "settings": "200 uM AmcB, 0.2 uM AmcH, 1 mM 2-OG, 5 mM ATP, 25 mM MgCl2, 50 mM Tris-HCl pH 8.0, 30 °C, 1 h"}}, "data": [{"compound": "Nc1ncnc2c1ncn2[C@@H]1O[C@H](COP(=O)(O)OP(=O)(O)OP(=O)(O)O)[C@@H](O)[C@H]1O", "note": "[ATP]", "values": [{"measurement": "HPLC of ATP consumption and AMP formation", "setting": "AmcH [1]", "result": "consumption of ATP and the generation of AMP occurred in both AmcB- and 2-OG-dependent manners"}]}, {"compound": "NC(=O)C1=CN([C@@H]2O[C@H](COP(=O)(O)OP(=O)(O)OC[C@H]3O[C@@H](n4cnc5c(N)ncnc54)[C@H](O)[C@@H]3O)[C@@H](O)[C@H]2O)C=CC1", "note": "[NADH]", "values": [{"measurement": "PPant ejection assay / LC-HRMS of 4-AmcB formation", "setting": "sFabI", "result": "eFabI and sFabI specifically catalyze the reduction of 3-AmcB to yield 4-AmcB"}, {"measurement": "PPant ejection assay / LC-HRMS of 4-AmcB formation", "setting": "eFabI", "result": "eFabI and sFabI specifically catalyze the reduction of 3-AmcB to yield 4-AmcB"}]}, {"compound": "O=C(O)CCC(=O)C(=O)O", "note": "[2-OG]", "values": [{"measurement": "LC-ESI-HRMS of acyl-AmcB", "setting": "AmcH [2]", "result": "AmcH loads only 2-OG onto AmcB to form 2-oxoglutaryl-AmcB"}]}]}
